Experimental data as given in article PMC12090182, “Repurposing of the RIPK1-Selective Benzo[1,4]oxazepin-4-one Scaffold for the Development of a Type III LIMK1/2 Inhibitor” (ACS Chemical Biology, 2025).
Where two headings read alike, the source gives them in different places.

Tested on: HEK293T cells
Type: cell-based
Details: HEK293T
Description: To assess the influence on cell health, a high-content screening in living cells called the multiplex high-content assay, as described previously by Tjaden et al., was performed.[38] In brief, HEK293T (ATCC CRL-1573) and U2OS (ATCCHTB-96) were cultured in DMEM plus L-glutamine (high glucose) supplemented by 10% FBS (Gibco) and penicillin/streptomycin (Gibco). MRC-9 fibroblasts ([…]) were cultured in EMEM plus L-glutamine supplemented by 10% FBS (Gibco) and penicillin/streptomycin (Gibco). Cells were seeded at a density of 1250 cells per well in a 384-well plate in a culture medium (cell culture microplate, PS, f-bottom, μClear, 781091, Greiner), with a volume of 50 μL per well. All outer wells were filled with 100 μL of PBS buffer (Gibco). […] The cell shape and fluorescence were measured before treatment and 12, 24, and 48 h after compound treatment using the CQ1 high-content confocal microscope (Yokogawa, Musashino, Japan). […] The compounds were tested at 1 and 10 μM, respectively. Acquired images of the cells were processed using Yokogawa CellPathfinder software (v3.04.02.02). […] Results were normalized to cells exposed to 0.1% DMSO. All compounds were tested in biological duplicates, and SEM (standard error of mean) was calculated of biological duplicates.

[1] = 1 µM, 0 h after treatment, biological replicate 1
[2] = 1 µM, 0 h after treatment, biological replicate 2
[3] = 1 µM, 12 h after treatment, biological replicate 1
[4] = 1 µM, 12 h after treatment, biological replicate 2
[5] = 1 µM, 24 h after treatment, biological replicate 1
[6] = 1 µM, 24 h after treatment, biological replicate 2
[7] = 1 µM, 48 h after treatment, biological replicate 1
[8] = 1 µM, 48 h after treatment, biological replicate 2
[9] = 10 µM, 0 h after treatment, biological replicate 1
[10] = 10 µM, 0 h after treatment, biological replicate 2
[11] = 10 µM, 12 h after treatment, biological replicate 1
[12] = 10 µM, 12 h after treatment, biological replicate 2
[13] = 10 µM, 24 h after treatment, biological replicate 1
[14] = 10 µM, 24 h after treatment, biological replicate 2
[15] = 10 µM, 48 h after treatment, biological replicate 1
[16] = 10 µM, 48 h after treatment, biological replicate 2

CC(C)C(=O)Nc1ncc(C(=O)NCCN(Cc2ccccc2)C(=O)c2ccc(S(=O)(=O)Nc3ccccc3)cc2)s1 [TH470]
Cell count normalized to cells treated with DMSO control [1]: 0.821 | Cell count per well [1]: 245 | Population Fragmented Nuclei (%) [1]: 8.67% | Population Healthy Nuclei (%) [1]: 36.73% | Population Pyknosed Nuclei (%) [1]: 54.59% | Population apoptotic cell (%) [1]: 45.79% | Population cell that influence microtubule strucutre (%) [1]: 23.61% | Population with increased mitochondrial mass (%) [1]: 62.50% | Population with membrane disruption (%) [1]: 0.00% | Cell count normalized to cells treated with DMSO control [2]: 1.084 | Cell count per well [2]: 248 | Population Fragmented Nuclei (%) [2]: 6.57% | Population Healthy Nuclei (%) [2]: 60.56% | Population Pyknosed Nuclei (%) [2]: 32.86% | Population apoptotic cell (%) [2]: 65.71% | Population cell that influence microtubule strucutre (%) [2]: 23.26% | Population with increased mitochondrial mass (%) [2]: 77.52% | Population with membrane disruption (%) [2]: 0.00% | Cell count normalized to cells treated with DMSO control [3]: 0.762 | Cell count per well [3]: 347 | Population Fragmented Nuclei (%) [3]: 6.25% | Population Healthy Nuclei (%) [3]: 79.38% | Population Pyknosed Nuclei (%) [3]: 14.38% | Population apoptotic cell (%) [3]: 34.78% | Population cell that influence microtubule strucutre (%) [3]: 27.17% | Population with increased mitochondrial mass (%) [3]: 44.49% | Population with membrane disruption (%) [3]: 0.79% | Cell count normalized to cells treated with DMSO control [4]: 1.119 | Cell count per well [4]: 392 | Population Fragmented Nuclei (%) [4]: 8.45% | Population Healthy Nuclei (%) [4]: 80.85% | Population Pyknosed Nuclei (%) [4]: 10.70% | Population apoptotic cell (%) [4]: 44.74% | Population cell that influence microtubule strucutre (%) [4]: 20.91% | Population with increased mitochondrial mass (%) [4]: 53.66% | Population with membrane disruption (%) [4]: 0.70% | Cell count normalized to cells treated with DMSO control [5]: 0.7629 | Cell count per well [5]: 463 | Population Fragmented Nuclei (%) [5]: 9.77% | Population Healthy Nuclei (%) [5]: 77.91% | Population Pyknosed Nuclei (%) [5]: 12.33% | Population apoptotic cell (%) [5]: 49.06% | Population cell that influence microtubule strucutre (%) [5]: 18.21% | Population with increased mitochondrial mass (%) [5]: 28.66% | Population with membrane disruption (%) [5]: 1.49% | Cell count normalized to cells treated with DMSO control [6]: 1.065 | Cell count per well [6]: 481 | Population Fragmented Nuclei (%) [6]: 9.19% | Population Healthy Nuclei (%) [6]: 81.84% | Population Pyknosed Nuclei (%) [6]: 8.97% | Population apoptotic cell (%) [6]: 42.50% | Population cell that influence microtubule strucutre (%) [6]: 14.25% | Population with increased mitochondrial mass (%) [6]: 34.25% | Population with membrane disruption (%) [6]: 0.55% | Cell count normalized to cells treated with DMSO control [7]: 0.791 | Cell count per well [7]: 800 | Population Fragmented Nuclei (%) [7]: 15.22% | Population Healthy Nuclei (%) [7]: 78.13% | Population Pyknosed Nuclei (%) [7]: 6.65% | Population apoptotic cell (%) [7]: 21.15% | Population cell that influence microtubule strucutre (%) [7]: 12.27% | Population with increased mitochondrial mass (%) [7]: 18.82% | Population with membrane disruption (%) [7]: 1.47% | Cell count normalized to cells treated with DMSO control [8]: 1.233 | Cell count per well [8]: 842 | Population Fragmented Nuclei (%) [8]: 13.32% | Population Healthy Nuclei (%) [8]: 80.63% | Population Pyknosed Nuclei (%) [8]: 6.05% | Population apoptotic cell (%) [8]: 22.00% | Population cell that influence microtubule strucutre (%) [8]: 11.71% | Population with increased mitochondrial mass (%) [8]: 13.96% | Population with membrane disruption (%) [8]: 2.70% | Cell count normalized to cells treated with DMSO control [9]: 0.9315 | Cell count per well [9]: 278 | Population Fragmented Nuclei (%) [9]: 7.95% | Population Healthy Nuclei (%) [9]: 44.77% | Population Pyknosed Nuclei (%) [9]: 47.28% | Population apoptotic cell (%) [9]: 36.28% | Population cell that influence microtubule strucutre (%) [9]: 15.89% | Population with increased mitochondrial mass (%) [9]: 64.49% | Population with membrane disruption (%) [9]: 0.00% | Cell count normalized to cells treated with DMSO control [10]: 0.9485 | Cell count per well [10]: 217 | Population Fragmented Nuclei (%) [10]: 6.86% | Population Healthy Nuclei (%) [10]: 61.76% | Population Pyknosed Nuclei (%) [10]: 31.37% | Population apoptotic cell (%) [10]: 54.69% | Population cell that influence microtubule strucutre (%) [10]: 26.19% | Population with increased mitochondrial mass (%) [10]: 83.33% | Population with membrane disruption (%) [10]: 0.00% | Cell count normalized to cells treated with DMSO control [11]: 0.7906 | Cell count per well [11]: 360 | Population Fragmented Nuclei (%) [11]: 7.79% | Population Healthy Nuclei (%) [11]: 76.01% | Population Pyknosed Nuclei (%) [11]: 16.20% | Population apoptotic cell (%) [11]: 50.00% | Population cell that influence microtubule strucutre (%) [11]: 67.21% | Population with increased mitochondrial mass (%) [11]: 73.77% | Population with membrane disruption (%) [11]: 0.00% | Cell count normalized to cells treated with DMSO control [12]: 0.8648 | Cell count per well [12]: 303 | Population Fragmented Nuclei (%) [12]: 4.80% | Population Healthy Nuclei (%) [12]: 76.38% | Population Pyknosed Nuclei (%) [12]: 18.82% | Population apoptotic cell (%) [12]: 66.67% | Population cell that influence microtubule strucutre (%) [12]: 63.77% | Population with increased mitochondrial mass (%) [12]: 85.02% | Population with membrane disruption (%) [12]: 0.97% | Cell count normalized to cells treated with DMSO control [13]: 0.6459 | Cell count per well [13]: 392 | Population Fragmented Nuclei (%) [13]: 10.66% | Population Healthy Nuclei (%) [13]: 68.30% | Population Pyknosed Nuclei (%) [13]: 21.04% | Population apoptotic cell (%) [13]: 42.47% | Population cell that influence microtubule strucutre (%) [13]: 67.93% | Population with increased mitochondrial mass (%) [13]: 75.53% | Population with membrane disruption (%) [13]: 0.00% | Cell count normalized to cells treated with DMSO control [14]: 0.6866 | Cell count per well [14]: 310 | Population Fragmented Nuclei (%) [14]: 8.92% | Population Healthy Nuclei (%) [14]: 72.12% | Population Pyknosed Nuclei (%) [14]: 18.96% | Population apoptotic cell (%) [14]: 45.10% | Population cell that influence microtubule strucutre (%) [14]: 52.06% | Population with increased mitochondrial mass (%) [14]: 79.38% | Population with membrane disruption (%) [14]: 1.55% | Cell count normalized to cells treated with DMSO control [15]: 0.5428 | Cell count per well [15]: 549 | Population Fragmented Nuclei (%) [15]: 15.79% | Population Healthy Nuclei (%) [15]: 71.54% | Population Pyknosed Nuclei (%) [15]: 12.67% | Population apoptotic cell (%) [15]: 44.62% | Population cell that influence microtubule strucutre (%) [15]: 57.49% | Population with increased mitochondrial mass (%) [15]: 61.58% | Population with membrane disruption (%) [15]: 2.45% | Cell count normalized to cells treated with DMSO control [16]: 0.5405 | Cell count per well [16]: 369 | Population Fragmented Nuclei (%) [16]: 12.20% | Population Healthy Nuclei (%) [16]: 75.00% | Population Pyknosed Nuclei (%) [16]: 12.80% | Population apoptotic cell (%) [16]: 55.81% | Population cell that influence microtubule strucutre (%) [16]: 64.68% | Population with increased mitochondrial mass (%) [16]: 73.81% | Population with membrane disruption (%) [16]: 1.19%
